Results from a melting point compilation (Tetko et al.; mined from patent text by program, amines drawn as free bases though some values may be those of a salt).

Row | Structure (SMILES) | melting point [°C]
1 | COc1cccc(-c2nc3n(n2)CCc2ccccc2-3)c1 | 94 to 96
2 | COc1cccc2c1CCC(C#N)=C2 | 47 to 49
3 | C=Cc1cc(CNC(=O)Nc2ccc(C(C)(C)C)cc2)cc(F)c1NS(C)(=O)=O | 167 to 170
4 | O=C1NC(=Cc2ccccc2Cl)C(=O)C1=NO | 176
5 | CC(C)(C)NC(=O)[C@@H]1C[C@H](Cl)CN1C(=O)[C@@H](O)[C@H](Cc1ccccc1)NC(=O)[C@H](CC(N)=O)NC(=O)OC(C)(C)C | 126 to 132
6 | CCCCOc1cc(C(=O)N(C)C)cc(S(N)(=O)=O)c1Cc1ccccc1 | 199 to 201
7 | O=C(Nc1ccc(N2CC3CC3C2)nc1)c1cc2cc(F)cnc2n1Cc1cccc(F)c1 (stereo not given) | 222 to 224
8 | CC(=O)N1CCc2c(c3ccc(-n4ccc(-c5ccc(C(F)(F)F)nc5)cc4=O)nc3n2C)C1 | 238 to 242
9 | CCOC(=O)/C(C#N)=C(\N)C(CC)CC | 87
10 | CC(=O)OC[C@H]1CCn2c(c(C3=C(c4cn(C)c5ccccc45)C(=O)NC3=O)c3ccccc32)C1 | 238 to 241
11 | CCn1nc(OCCCc2ccc(OC(C)C)cc2Oc2ncc(C(F)(F)F)cc2Cl)cc1CCC(=O)O | 73 to 74
12 | Nc1nc(-c2cc(Cl)ccc2Cl)nc(N2CCN(c3ncccn3)CC2)n1 | 224 to 225
13 | COc1ccc(Sc2ncc(Cl)cn2)cc1 | 75
14 | CCCCCNc1nc(SC)[nH]c2nccc1-2 | 134 to 137
15 | N#Cc1cn(Cc2ccccc2)nn1 | 78 to 79
16 | CCC1(C)Cc2cc(OCC(=O)O)c(Cl)c(Cl)c2C1=O (stereo not given) | 168
17 | CC(=O)Nc1ccc(Cn2c3c(c4cc(F)cc(F)c42)CCCC3CC(=O)O)cc1 (stereo not given) | 237 to 239
18 | CCCSCC(=O)NNC(=O)N1Cc2ccccc2Oc2ccc(Cl)cc21 | 78 to 81
19 | COC(=O)C1CCC2C3CCC4CC(O)C(OC)CC4(C)C3C(NC3CCCCC3)CC12C (stereo not given) | 141 to 143
20 | COCC(=O)Nc1nc2ccccc2s1 | 99 to 100
21 | CCCc1c(OCCCCCCCC(=O)NCCCCc2cccnc2)ccc(C(C)=O)c1O | 48 to 51
22 | O=C(c1ccc(-c2ccc(Cl)cc2)o1)N1CCN(c2cccc(Br)c2)CC1 | 130
23 | CC(C)(C)OC(=O)N1CCC2(CC1)CC(c1ncccc1Cl)=NO2 | 97 to 102
24 | O=S1(=O)C=C(Br)C=C1CO | 56 to 57
25 | O=[N+]([O-])c1ccc(N2C3C4CCC(C4)C32)c2nnoc12 (stereo not given) | 132 to 133

Row | Structure (SMILES) | melting point [°C]
26 | CCC(=O)N(C)c1ccc(C(=O)C=CN(C)C)cc1 | 76 to 78
27 | N=C(NO)c1ccc(N)nc1 | 300
28 | C#CCOc1nc(-n2ncc(C(=O)OCC)c2N)c(C(F)(F)F)cc1Cl | 118 to 119
29 | C=Cn1c(Cl)cc(Cl)c(O)c1=S | 114
30 | Cc1ccc(C(=O)Nc2c(NC(=O)CN3CCN(c4ccccc4F)CC3)ccc3c2C(=O)c2ccccc2C3=O)cc1 | 228 to 229
31 | CCOc1cccc2c1OC(C(F)(F)F)C(C(=O)O)=C2 (stereo not given) | 159 to 161
32 | COC(=O)NCCc1ccc(OCC(O)CNC(C)C)nc1 (stereo not given) | 97 to 99
33 | CNC(=S)C1=C(O)C(C)(C)Oc2ccc([N+](=O)[O-])cc21 | 148 to 149
34 | Cc1cccc2c(=O)nc(-c3cccc(C(=O)NCCCCCCNC(=O)OC(C)(C)C)n3)sc12 | 171 to 172
35 | CCNC1CN(c2c(F)cc3c(=O)c(C(=O)O)cn(-c4nc(N)c(F)cc4F)c3c2Br)C1 | 195 to 196
36 | CCOC(=O)c1cccc(-c2cc3c(Nc4cccc(Cl)c4)ncnc3[nH]2)c1 | > 300
37 | CS(=O)(=O)Nc1ccc(C23CC2C(=O)NC3=O)cc1 (stereo not given) | 208 to 209
38 | CCCCCCCCCCCCCCOc1ccc(CN(C(C)=O)c2cccc(CO)c2)cc1 | 65 to 67
39 | O=C(O)COc1cccc(CCc2nc(-c3cccs3)c(-c3cccs3)o2)c1 | 106 to 107
40 | CC1CC(c2c[nH]c(-c3ccc(F)cc3)c2-c2ccncc2)CCN1 (stereo not given) | 198 to 205
41 | CC1Sc2ccccc2N1C(=S)Nc1cccc(Cl)c1 (stereo not given) | 120 to 122
42 | CC(=O)OCCC1(C)CCc2c(C)c(OCc3ccccc3)c(C)c(C)c2O1 (stereo not given) | 58 to 62
43 | COC(=O)CCCc1cc2cc(Cl)ccc2n1S(=O)(=O)c1ccc2c(c1)CCC(=O)N2 | 198 to 205
44 | CCCCCC(=O)C=CC1=C(CCC(=O)O)C(=O)CC1O (stereo not given) | 57
45 | Cn1ncc(NCCCN2CCC(c3noc4cc(F)ccc34)CC2)c(Cl)c1=O | 200 to 202
46 | O=[N+]([O-])c1ccc(-c2cccc(-c3cn([C@H]4CN5CCC4CC5)nn3)c2)cn1 | 180
47 | O=C(O)[C@@H](Cc1ccccc1)NS(=O)(=O)c1ccc2ccccc2c1 | 146
48 | O=Cc1ccc(-c2ncn(-c3ccc(OC(F)(F)F)cc3)n2)cc1 | 137 to 140
49 | FC(F)(F)c1cccc(OC(c2ccc(Cl)cc2)c2nnn[nH]2)c1 (stereo not given) | 124 to 126
50 | COC[C@H]1CC[C@@H](n2c(=O)[nH]c3c(C(N)=O)nc(-c4cccc(O)c4)nc32)CC1 | 324 to 326
